Source: ChEMBL document CHEMBL1138148, “Conformational constraint in oxazolidinone antibacterials. Part 2: Synthesis and structure-activity studies of oxa-, aza-, and thiabicyclo[3.1.0]hexylphenyl oxazolidinones” (2006)
Values after ≈ are worked out from the molar mass of the structure shown.

Tests used:
Type in all cases: functional
Moraxella catarrhalis = assay: Antibacterial activity against Moraxella catarrhalis BC-3531
Streptococcus pneumoniae = assay: Antibacterial activity against Streptococcus pneumoniae SVI SP-3
Haemophilus influenzae = assay: Antibacterial activity against Haemophilus influenzae HI3542; conditions: HI-3542
Staphylococcus aureus [1] = assay: Antibacterial activity against Staphylococcus aureus UC-76 SA-1
Enterococcus faecalis = assay: Antibacterial activity against Enterococcus faecalis MGH-2 EF1-1
Staphylococcus aureus [2] = assay: In vivo efficacy in mouse infected with Staphylococcus aureus UC 9213 administered po; conditions: UC 9213, po

| Structure (SMILES) | MIC (Moraxella catarrhalis) [µg/mL] | MIC (Streptococcus pneumoniae) [µg/mL] | MIC (Haemophilus influenzae) [µg/mL] | MIC (Staphylococcus aureus [1]) [µg/mL] | MIC (Enterococcus faecalis) [µg/mL] | ED50 (Staphylococcus aureus [2]) [mg/kg] |
| --- | --- | --- | --- | --- | --- | --- |
| CC(=O)NC[C@H]1CN(c2ccc([C@H]3[C@@H]4CN(CCC#N)C[C@@H]43)c(F)c2)C(=O)O1 | 8 (≈ 20.7 µM) | 1 (≈ 2.59 µM) | 16 (≈ 41.4 µM) | 2 (≈ 5.18 µM) | 2 (≈ 5.18 µM) | – |
| CC(=O)NC[C@H]1CN(c2ccc([C@H]3[C@@H]4CN(C(=O)CC#N)C[C@@H]43)c(F)c2)C(=O)O1 | 4 (≈ 9.99 µM) | 1 (≈ 2.5 µM) | 8 (≈ 20 µM) | 1 (≈ 2.5 µM) | 1 (≈ 2.5 µM) | – |
| CC(=O)NC[C@H]1CN(c2ccc([C@H]3[C@@H]4CNC[C@@H]43)c(F)c2)C(=O)O1 | 8 (≈ 24 µM) | 2 (≈ 6 µM) | 32 (≈ 96 µM) | 8 (≈ 24 µM) | 16 (≈ 48 µM) | – |
| CC(=O)NC[C@H]1CN(c2ccc([C@H]3[C@@H]4CN(C(=O)CO)C[C@@H]43)c(F)c2)C(=O)O1 | 8 (≈ 20.4 µM) | 2 (≈ 5.11 µM) | 4 (≈ 10.2 µM) | 2 (≈ 5.11 µM) | 2 (≈ 5.11 µM) | 2.2 |
| O=C(NC[C@H]1CN(c2ccc([C@H]3[C@@H]4CS(=O)(=O)C[C@@H]43)c(F)c2)C(=O)O1)C1CCC1 | 32 (≈ 75.7 µM) | 2 (≈ 4.73 µM) | 32 (≈ 75.7 µM) | 8 (≈ 18.9 µM) | 8 (≈ 18.9 µM) | – |
| CC(=O)NC[C@H]1CN(c2cc(F)c([C@H]3[C@@H]4CN(C(=O)CO)C[C@@H]43)c(F)c2)C(=O)O1 | 8 (≈ 19.5 µM) | 2 (≈ 4.89 µM) | 16 (≈ 39.1 µM) | 4 (≈ 9.77 µM) | 4 (≈ 9.77 µM) | – |
| C/N=C(\NC#N)N1C[C@@H]2[C@H](C1)[C@H]2c1ccc(N2C[C@H](CNC(C)=O)OC2=O)cc1F | 32 (≈ 77.2 µM) | 2 (≈ 4.83 µM) | 16 (≈ 38.6 µM) | 4 (≈ 9.65 µM) | 4 (≈ 9.65 µM) | – |
| CC(=O)NC[C@H]1CN(c2ccc([C@H]3[C@@H]4CN(C#N)C[C@@H]43)c(F)c2)C(=O)O1 | 4 (≈ 11.2 µM) | 1 (≈ 2.79 µM) | 8 (≈ 22.3 µM) | 2 (≈ 5.58 µM) | 1 (≈ 2.79 µM) | – |
| CC(=O)NC[C@H]1CN(c2ccc([C@H]3[C@@H]4CN(CCO)C[C@@H]43)c(F)c2)C(=O)O1 | 8 (≈ 21.2 µM) | 0.5 (≈ 1.32 µM) | 8 (≈ 21.2 µM) | 4 (≈ 10.6 µM) | 8 (≈ 21.2 µM) | – |
| CCC(=O)NC[C@H]1CN(c2ccc([C@H]3[C@@H]4CS(=O)(=O)C[C@@H]43)c(F)c2)C(=O)O1 | 8 (≈ 20.2 µM) | 1 (≈ 2.52 µM) | 8 (≈ 20.2 µM) | 4 (≈ 10.1 µM) | 2 (≈ 5.04 µM) | – |
| CC(F)(F)C(=O)NC[C@H]1CN(c2ccc([C@H]3[C@@H]4CS(=O)(=O)C[C@@H]43)c(F)c2)C(=O)O1 | 8 (≈ 18.5 µM) | 2 (≈ 4.63 µM) | 16 (≈ 37 µM) | 8 (≈ 18.5 µM) | 8 (≈ 18.5 µM) | – |
| CC(=O)NC[C@H]1CN(c2ccc([C@H]3[C@@H]4CN(C(=O)C(C)(C)O)C[C@@H]43)c(F)c2)C(=O)O1 | 16 (≈ 38.1 µM) | 2 (≈ 4.77 µM) | 32 (≈ 76.3 µM) | 8 (≈ 19.1 µM) | 4 (≈ 9.54 µM) | – |
| CC(=O)NC[C@H]1CN(c2ccc([C@H]3[C@@H]4COC[C@@H]43)c(F)c2)C(=O)O1 | 4 (≈ 12 µM) | 2 (≈ 5.98 µM) | 8 (≈ 23.9 µM) | 4 (≈ 12 µM) | 4 (≈ 12 µM) | – |
| CC(=O)NC[C@H]1CN(c2ccc([C@H]3[C@@H]4CN(CCF)C[C@@H]43)c(F)c2)C(=O)O1 | 8 (≈ 21.1 µM) | 1 (≈ 2.64 µM) | 16 (≈ 42.2 µM) | 4 (≈ 10.5 µM) | 4 (≈ 10.5 µM) | – |
| CC(=O)NC[C@H]1CN(c2ccc([C@H]3[C@@H]4CN(C(=O)CO)C[C@@H]43)cc2)C(=O)O1 | 4 (≈ 10.7 µM) | 4 (≈ 10.7 µM) | 8 (≈ 21.4 µM) | 4 (≈ 10.7 µM) | 4 (≈ 10.7 µM) | – |
| CC(=O)NC[C@H]1CN(c2ccc([C@H]3[C@@H]4CN(C(=N)NC#N)C[C@@H]43)c(F)c2)C(=O)O1 | 8 (≈ 20 µM) | 1 (≈ 2.5 µM) | 8 (≈ 20 µM) | 1 (≈ 2.5 µM) | 2 (≈ 4.99 µM) | – |
| CC(=O)NC[C@H]1CN(c2ccc([C@H]3[C@@H]4CN(C(=O)CN)C[C@@H]43)c(F)c2)C(=O)O1 | 16 (≈ 41 µM) | 1 (≈ 2.56 µM) | 16 (≈ 41 µM) | 16 (≈ 41 µM) | 4 (≈ 10.2 µM) | – |
| CC(=O)NCC(=O)N1C[C@@H]2[C@H](C1)[C@H]2c1ccc(N2C[C@H](CNC(C)=O)OC2=O)cc1F | 32 (≈ 74 µM) | 4 (≈ 9.25 µM) | 32 (≈ 74 µM) | 4 (≈ 9.25 µM) | 4 (≈ 9.25 µM) | – |
| CC(=O)NC[C@H]1CN(c2cc(F)c([C@H]3[C@@H]4CS(=O)(=O)C[C@@H]43)c(F)c2)C(=O)O1 | 4 (≈ 9.99 µM) | 1 (≈ 2.5 µM) | 8 (≈ 20 µM) | 2 (≈ 4.99 µM) | 2 (≈ 4.99 µM) | 3.1 |
| CC(F)(F)C(=O)NC[C@H]1CN(c2cc(F)c([C@H]3[C@@H]4CS(=O)(=O)C[C@@H]43)c(F)c2)C(=O)O1 | 8 (≈ 17.8 µM) | 1 (≈ 2.22 µM) | 16 (≈ 35.5 µM) | 4 (≈ 8.88 µM) | 2 (≈ 4.44 µM) | – |

| Structure (SMILES) | MIC (Moraxella catarrhalis) [µg/mL] | MIC (Streptococcus pneumoniae) [µg/mL] | MIC (Haemophilus influenzae) [µg/mL] | MIC (Staphylococcus aureus [1]) [µg/mL] | MIC (Enterococcus faecalis) [µg/mL] | ED50 (Staphylococcus aureus [2]) [mg/kg] |
| --- | --- | --- | --- | --- | --- | --- |
| O=C(CO)NC[C@H]1CN(c2cc(F)c([C@H]3[C@@H]4CS(=O)(=O)C[C@@H]43)c(F)c2)C(=O)O1 | 8 (≈ 19.2 µM) | 2 (≈ 4.8 µM) | 8 (≈ 19.2 µM) | 4 (≈ 9.61 µM) | 4 (≈ 9.61 µM) | – |
| O=C(NC[C@H]1CN(c2ccc([C@H]3[C@@H]4CS(=O)(=O)C[C@@H]43)c(F)c2)C(=O)O1)C1CC1 | 4 (≈ 9.79 µM) | 2 (≈ 4.9 µM) | 4 (≈ 9.79 µM) | 4 (≈ 9.79 µM) | 4 (≈ 9.79 µM) | – |
| O=C(NC[C@H]1CN(c2cc(F)c([C@H]3[C@@H]4CS(=O)(=O)C[C@@H]43)c(F)c2)C(=O)O1)C1CC1 | 4 (≈ 9.38 µM) | 1 (≈ 2.34 µM) | 8 (≈ 18.8 µM) | 2 (≈ 4.69 µM) | 2 (≈ 4.69 µM) | – |
| CC(=O)NC[C@H]1CN(c2ccc([C@H]3[C@@H]4CN(C(=O)C(F)F)C[C@@H]43)c(F)c2)C(=O)O1 | 8 (≈ 19.4 µM) | 1 (≈ 2.43 µM) | 16 (≈ 38.9 µM) | 4 (≈ 9.72 µM) | 2 (≈ 4.86 µM) | – |
| CC(=O)NC[C@H]1CN(c2ccc(N3CCOCC3)c(F)c2)C(=O)O1 [LINEZOLID] | 8 (≈ 23.7 µM) | – | 16 (≈ 47.4 µM) | – | – | – |
| CC(=O)NC[C@H]1CN(c2ccc([C@H]3[C@@H]4CN(c5nnn(C)n5)C[C@@H]43)c(F)c2)C(=O)O1 | 8 (≈ 19.3 µM) | 1 (≈ 2.41 µM) | 16 (≈ 38.5 µM) | 2 (≈ 4.81 µM) | 2 (≈ 4.81 µM) | – |
| O=C(CO)NC[C@H]1CN(c2ccc([C@H]3[C@@H]4CS(=O)(=O)C[C@@H]43)c(F)c2)C(=O)O1 | 8 (≈ 20.1 µM) | 4 (≈ 10 µM) | 8 (≈ 20.1 µM) | 8 (≈ 20.1 µM) | 8 (≈ 20.1 µM) | – |
| CC(=O)NC[C@H]1CN(c2ccc([C@H]3[C@@H]4CN(C(N)=O)C[C@@H]43)c(F)c2)C(=O)O1 | 8 (≈ 21.3 µM) | 2 (≈ 5.31 µM) | 8 (≈ 21.3 µM) | 2 (≈ 5.31 µM) | 2 (≈ 5.31 µM) | 15.3 |
| CC(=O)NC[C@H]1CN(c2ccc([C@H]3[C@@H]4CS(=O)(=O)C[C@@H]43)c(F)c2)C(=O)O1 | 8 (≈ 20.9 µM) | 2 (≈ 5.23 µM) | 8 (≈ 20.9 µM) | 4 (≈ 10.5 µM) | 4 (≈ 10.5 µM) | 4.2 |
| CCC(=O)NC[C@H]1CN(c2cc(F)c([C@H]3[C@@H]4CS(=O)(=O)C[C@@H]43)c(F)c2)C(=O)O1 | 4 (≈ 9.65 µM) | 1 (≈ 2.41 µM) | 4 (≈ 9.65 µM) | 2 (≈ 4.83 µM) | 2 (≈ 4.83 µM) | – |
| CC(=O)NC[C@H]1CN(c2ccc([C@H]3[C@@H]4CS(=O)(=O)C[C@@H]43)cc2)C(=O)O1 | 8 (≈ 22 µM) | 4 (≈ 11 µM) | 16 (≈ 43.9 µM) | 4 (≈ 11 µM) | 8 (≈ 22 µM) | 7.2 |
| CC(=O)NC[C@H]1CN(c2ccc([C@H]3[C@@H]4CN(C(=N)N)C[C@@H]43)c(F)c2)C(=O)O1 | 16 (≈ 42.6 µM) | 4 (≈ 10.7 µM) | 64 (≈ 170 µM) | 64 (≈ 170 µM) | 64 (≈ 170 µM) | – |
| CC(=O)NC[C@H]1CN(c2ccc([C@H]3[C@@H]4CN(c5nn[nH]n5)C[C@@H]43)c(F)c2)C(=O)O1 | 64 (≈ 159 µM) | 64 (≈ 159 µM) | 64 (≈ 159 µM) | 64 (≈ 159 µM) | 32 (≈ 79.7 µM) | – |
| CC(=O)NC[C@H]1CN(c2ccc([C@H]3[C@@H]4COC[C@@H]43)cc2)C(=O)O1 | 8 (≈ 25.3 µM) | 8 (≈ 25.3 µM) | 32 (≈ 101 µM) | 8 (≈ 25.3 µM) | 16 (≈ 50.6 µM) | – |
| N#CCC(=O)NC[C@H]1CN(c2ccc([C@H]3[C@@H]4CS(=O)(=O)C[C@@H]43)c(F)c2)C(=O)O1 | 8 (≈ 19.6 µM) | 4 (≈ 9.82 µM) | 8 (≈ 19.6 µM) | 8 (≈ 19.6 µM) | 8 (≈ 19.6 µM) | – |
| CC(=O)NC[C@H]1CN(c2cc(F)c([C@H]3[C@@H]4COC[C@@H]43)c(F)c2)C(=O)O1 | 8 (≈ 22.7 µM) | 4 (≈ 11.4 µM) | 32 (≈ 90.8 µM) | 8 (≈ 22.7 µM) | 8 (≈ 22.7 µM) | – |
| N#CCC(=O)NC[C@H]1CN(c2cc(F)c([C@H]3[C@@H]4CS(=O)(=O)C[C@@H]43)c(F)c2)C(=O)O1 | 8 (≈ 18.8 µM) | 2 (≈ 4.7 µM) | 4 (≈ 9.4 µM) | 4 (≈ 9.4 µM) | 4 (≈ 9.4 µM) | – |
| CC(=O)NC[C@H]1CN(c2ccc([C@H]3[C@@H]4CN(C=O)C[C@@H]43)c(F)c2)C(=O)O1 | 8 (≈ 22.1 µM) | 1 (≈ 2.77 µM) | 8 (≈ 22.1 µM) | 2 (≈ 5.53 µM) | 2 (≈ 5.53 µM) | – |
| COC(=O)N1C[C@@H]2[C@H](C1)[C@H]2c1ccc(N2C[C@H](CNC(C)=O)OC2=O)cc1F | 8 (≈ 20.4 µM) | 2 (≈ 5.11 µM) | 32 (≈ 81.8 µM) | 4 (≈ 10.2 µM) | 4 (≈ 10.2 µM) | – |
